{"source": "patent US20230128114A1", "about": "“METHODS AND COMPOSITIONS FOR TREATING OR PREVENTING AN INFLAMMATORY CONDITION” (priority 2020, published 2023)", "key": {"LPS-induced sepsis [1]": {"system": "LPS-induced sepsis", "assay": "LPS-induced sepsis in mice, oral administration: serum 23-plex immune marker panel", "assay_type": "in vivo, C57BL/6 mice", "description": "(§1) Male C57BL/6 mice weighing 10-20 g were used. Vehicle and active agents (i.e., CBD and hydroxychloroquine) alone or in combination were administered intraperitoneally (IP) (Table 4) or orally (Table 5) at 1 hour before LPS (100 μg/100 μL/mouse) injected intravenously (IV). At 2 hours after LPS injection, blood was collected from all mice by cardiac puncture, sera processed and assayed for biomarkers using either the Th17-plex for IL-1β, IL-2, IL-10, IL-12 (p70), IFN-γ and TNF-α by Luminex, plus IL-6 and D-dimer by ELISA, or the 23-plex for IL-1α, IL-1β, IL-2, IL-3, IL-4, IL-5, IL-6, IL-9, IL-10, IL-12(p40), IL-12(p70), IL-13, IL-17A, Eotaxin, G-CSF, GM-CSF, IFN-γ, KC, MCP-1(MCAF), MIP-1α, MIP-1β, RANTES, and TNF-α by Luminex, plus IL-6 by ELISA. ANOVA followed by Dunnett's test was applied for comparison between vehicle and treatment groups. p<0.05 is considered significant."}, "[2]": {"system": "collagen-induced arthritis", "assay": "Collagen-induced arthritis", "assay_type": "in vivo, Lewis rats", "design": "key to Clinical score Day 24, relative reduction / Pannus score, relative reduction / Total histology score, relative reduction: fractional reduction vs vehicle control, sham-baseline subtracted", "conditions": "CBD 1 mg/kg, HCQ 2.5 mg/kg, alone or combined", "description": "Female Lewis rats were challenged with porcine type-II collagen with Freund's adjuvant on Day 1 (0.2 mg/0.2 mL/rat) by subcutaneous injection at the base of the tail to induce arthritis. A booster injection at 0.1 mg/0.1 mL/rat) was administered on Day 7. On Day 16, rats were allocated into groups of six based on hind paw volume, with animals allocated into groups to provide a similar distribution of hind paw volumes.\nVehicle and active agents (i.e., CBD and hydroxychloroquine) alone or in combination were administered intraperitoneally (IP) once a day starting from Day 17 to Day 30, i.e., for a total of 14 consecutive days.\nDisease was assessed by measuring hind paw volume with plethysmometer and using a qualitative severity score system as outlined in Table 32 on Day 1, 7, 10, 14, 16, 18, 20, 22, 24, 26, 28 and 30.\nPost-termination on Day 30, blood was collected from all rats and analysed for levels of the inflammatory cytokines IL-1β, IL-6 and TNF-α by ELISA. Both hind paws were harvested, weighed and formalin-fixed for histopathology. Tissue was assessed to evaluate cartilage and bone destruction by pannus formation and mononuclear cell infiltration in synovial tissues according to the scoring matrices set out in Tables 33 and 34. A total histology score, being the sum of the pannus formation and mononuclear cell infiltration score, was also calculated.\nFor synergy analysis, data were baseline subtracted using sham treated […] (i.e., no collagen injection), before normalising the values relative to vehicle control. Synergy was calculated using the statistical methods described elsewhere herein."}, "[3]": {"system": "human peripheral blood mononuclear cells (PBMCs) stimulated with bacterial lipopolysaccharide (LPS)", "assay": "Cytokine release from LPS-stimulated human PBMCs (checkerboard, Luminex), Bliss synergy", "assay_type": "cell-based", "conditions": "PBMC", "description": "The anti-inflammatory activity the combination of CBD and hydroxychloroquine was assessed by determining cytokine release from human peripheral blood mononuclear cells (PBMCs) stimulated with bacterial lipopolysaccharide (LPS) using a Luminex based assay. A 96-well microtitre plate-based checkerboard assay with seven concentrations (including the no drug control) of CBD and hydroxychloroquine were assessed in combination was used to determine the drug-drug interaction. Briefly, frozen PMBCs from two independent donors were thawed, diluted in culture medium, seeded into 96-well microtitre plates and incubated at 37° C., 5% CO2 for 1 hour prior to the addition of test compounds. After the addition of the test compounds the cells were returned to the incubator for 1 hour, after which LPS was added to the wells. Plates were incubated at 37° C., 5% CO2 for 24 hours. After 24 hours, cell culture supernatants were removed and analysed for cytokine levels using Luminex methodology according to manufacturers' instructions. All values had the vehicle background subtracted prior to further analysis. Three plates were set up in parallel using the PBMCs from the same donor. Inhibition of cytokine release was determined relative to the no treatment control (i.e., that was stimulated with LPS) and averaged across the three replicates. A cytotoxicity assay using AlmarBlue with the identical plate set up was performed in parallel.\nDrug synergy was determined using the Bliss Independence method where the predicted effect of the drug combination is calculated using the equation: […]\nSynergy values for each combination of drug concentrations were calculated using the Excess Over Bliss method (the difference between the observed and predicted inhibition) described by, e.g., Liu et al. (2018, Statistics in Biopharmaceutical Research, 10: 112-122, where a value greater than 0 is indicative of synergy and the higher the value the stronger the synergy."}, "LPS-induced sepsis [4]": {"system": "LPS-induced sepsis", "assay": "LPS-induced sepsis in mice, intraperitoneal administration: serum immune marker panel (Luminex/ELISA)", "assay_type": "in vivo, C57BL/6 mice", "description": "as §1"}, "[5]": {"conditions": "CBD 1, 5, 10, 25, 50 and 100 mg/kg IP"}}, "note": "Like-named read-outs stand apart in the source and are kept apart here.", "data": [{"smiles": "C=C(C)[C@@H]1CCC(C)=C[C@H]1c1c(O)cc(CCCCC)cc1O", "note": "[CBD, cannabidiol]", "values": [{"measurement": "Effect on biomarker levels", "setting": "LPS-induced sepsis [1]; CBD 1 mg/kg PO alone", "result": "little or no effect"}, {"measurement": "LPS-induced IL-1α release vs vehicle group", "setting": "LPS-induced sepsis [1]; CBD 10 mg/kg PO alone", "result": "moderate suppression"}, {"measurement": "LPS-induced IL-1β release vs vehicle group", "setting": "LPS-induced sepsis [1]; CBD 10 mg/kg PO alone", "result": "moderate suppression"}, {"measurement": "LPS-induced IL-2 release vs vehicle group", "setting": "LPS-induced sepsis [1]; CBD 10 mg/kg PO alone", "result": "moderate suppression"}, {"measurement": "LPS-induced IL-4 release vs vehicle group", "setting": "LPS-induced sepsis [1]; CBD 10 mg/kg PO alone", "result": "moderate suppression"}, {"measurement": "LPS-induced IL-5 release vs vehicle group", "setting": "LPS-induced sepsis [1]; CBD 10 mg/kg PO alone", "result": "moderate suppression"}, {"measurement": "LPS-induced IL-9 release vs vehicle group", "setting": "LPS-induced sepsis [1]; CBD 10 mg/kg PO alone", "result": "moderate suppression"}, {"measurement": "Clinical score Day 24, relative reduction", "setting": "[2]; observed", "result": 0.21}, {"measurement": "Pannus score, relative reduction", "setting": "[2]; observed", "result": 0.07}, {"measurement": "Paw volume Day 24, relative reduction", "setting": "[2]; observed", "result": 0.04}, {"measurement": "Total histology score, relative reduction", "setting": "[2]; observed", "result": 0.11}, {"measurement": "Relative reduction in serum cytokine levels: IL-1β", "setting": "[2]; serum", "result": 0.31}, {"measurement": "Relative reduction in serum cytokine levels: IL-6", "setting": "[2]; serum", "result": 0.50}, {"measurement": "inhibition at 5 µg/mL", "setting": "[3]; Donor 1, CBD 5.00 μg/mL alone, read-out: FIE (fractional inhibitory effect), IL-1α release", "result": 40, "unit": "%"}, {"measurement": "inhibition at 5 µg/mL", "setting": "[3]; Donor 1, CBD 5.00 μg/mL alone, read-out: FIE (fractional inhibitory effect), IL-1β release", "result": 38, "unit": "%"}, {"measurement": "inhibition at 5 µg/mL", "setting": "[3]; Donor 1, CBD 5.00 μg/mL alone, read-out: FIE (fractional inhibitory effect), IL-6 release", "result": 8, "unit": "%"}, {"measurement": "inhibition at 5 µg/mL", "setting": "[3]; Donor 1, CBD 5.00 μg/mL alone, read-out: FIE (fractional inhibitory effect), MIP-1α release", "result": 12, "unit": "%"}, {"measurement": "inhibition at 5 µg/mL", "setting": "[3]; Donor 1, CBD 5.00 μg/mL alone, read-out: FIE (fractional inhibitory effect), TNF-α release", "result": 5, "unit": "%"}, {"measurement": "inhibition at 5 µg/mL", "setting": "[3]; Donor 2, CBD 5.00 μg/mL alone, read-out: FIE (fractional inhibitory effect), IL-1α release", "result": 28, "unit": "%"}, {"measurement": "inhibition at 5 µg/mL", "setting": "[3]; Donor 2, CBD 5.00 μg/mL alone, read-out: FIE (fractional inhibitory effect), IL-1β release", "result": 13, "unit": "%"}, {"measurement": "inhibition at 5 µg/mL", "setting": "[3]; Donor 2, CBD 5.00 μg/mL alone, read-out: FIE (fractional inhibitory effect), IL-6 release", "result": 9, "unit": "%"}, {"measurement": "inhibition at 5 µg/mL", "setting": "[3]; Donor 2, CBD 5.00 μg/mL alone, read-out: FIE (fractional inhibitory effect), MIP-1α release", "result": 0, "unit": "%"}, {"measurement": "inhibition at 5 µg/mL", "setting": "[3]; Donor 2, CBD 5.00 μg/mL alone, read-out: FIE (fractional inhibitory effect), TNF-α release", "result": 7, "unit": "%"}, {"measurement": "IFN-γ level vs vehicle group", "setting": "LPS-induced sepsis [4]; CBD 5 mg/kg IP", "result": "Moderate reductions"}, {"measurement": "IFN-γ level vs vehicle group", "setting": "LPS-induced sepsis [4]; CBD 10 mg/kg IP", "result": "moderate reduction"}, {"measurement": "IL-1β level vs vehicle group", "setting": "LPS-induced sepsis [4]; CBD 10 mg/kg IP", "result": "moderate reduction"}, {"measurement": "IL-2 level vs vehicle group", "setting": "LPS-induced sepsis [4]; CBD 10 mg/kg IP", "result": "moderate reduction"}, {"measurement": "IL-12(p70) level vs vehicle group", "setting": "LPS-induced sepsis [4]; CBD 10 mg/kg IP", "result": "moderate reduction"}, {"measurement": "TNF-α level vs vehicle group", "setting": "LPS-induced sepsis [4]; CBD 10 mg/kg IP", "result": "moderate reduction"}, {"measurement": "IFN-γ level vs vehicle group", "setting": "LPS-induced sepsis [4]; CBD 25 mg/kg IP", "result": "Moderate reductions"}, {"measurement": "TNF-α level vs vehicle group", "setting": "LPS-induced sepsis [4]; CBD 25 mg/kg IP", "result": "Moderate reductions"}, {"measurement": "IL-1β level vs vehicle group", "setting": "LPS-induced sepsis [4]; CBD 100 mg/kg IP", "result": "significant (p<0.05) increase"}, {"measurement": "IL-10 level vs vehicle group", "setting": "LPS-induced sepsis [4]; CBD 100 mg/kg IP", "result": "significant (p<0.05) increase"}, {"measurement": "LPS-induced D-dimer level vs vehicle control", "setting": "LPS-induced sepsis [4]; [5]", "result": "dose-dependent increase"}, {"measurement": "LPS-induced IL-1β level vs vehicle control", "setting": "LPS-induced sepsis [4]; [5]", "result": "dose-dependent increase"}, {"measurement": "LPS-induced IL-10 level vs vehicle control", "setting": "LPS-induced sepsis [4]; [5]", "result": "dose-dependent increase"}, {"measurement": "Shape of dose response in the reduction of LPS-induced cytokine levels", "setting": "LPS-induced sepsis [4]; CBD 1-100 mg/kg IP", "result": "bell-shaped dose response curve"}]}]}
